Data as given in patent US12435294B2, “Prevention of the oxidation of perfumery raw materials and food raw materials” (Firmenich SA, priority 2018, dated 2025).
Several values for one entry are separate records, joined by “and”; a condition that tells them apart may be missing. Identical values can stand only once. Like-named read-outs stand apart in the source and are kept apart here. Values belong to the compound of their own block, whether it stands above or below them.

Key:
[1] = POV reduction in model citrus perfume (mixed citrus oil in 90/10 v/v ethanol/water); details: for reduction in POV relative to untreated material: 7 days after addition, 1.0% w/v in model perfume; for Reduction in POV (%): vs untreated
[2] = POV reduction in autoxidized limonene
Experimental: The vial was shaken once and allowed to stand for 50 minutes. No further treatment was done prior to the POV testing. […] POV before treatment was 65.97 mEq./L, and POV after treatment was 17.21 mEq./L. […] The vial was shaken once and allowed to stand, while being monitored for POV value as a function of time. […] The vial was shaken once and allowed to stand, while being monitored for POV value as a function of time.

[3] = POV reduction in sunflower oil; details: for POV of treated oil / % Reduction in POV: 0.3358 g in 15 mL sunflower oil
[4] = Solubility / miscibility observed on addition to the treated material
[5] = HPLC chemiluminescence peak area of oxidized limonene; details: oxidized limonene 100 μL + 2 mg HDPA
Experimental: Preparation of the Treated Sample: Oxidized limonene (100 μL, with a starting POV of approximately 38 mmol/L) was treated with 2 mg of HDPA (approximately 2 eq of HP). The treated & un-treated limonene samples were allowed to stand on the benchtop under ambient laboratory light at room temperature, and HPLC Chemiluminescence measurements were taken periodically. The same quantity of untreated limonene was prepared in a 2nd vial and monitored similarly to the treated one for comparison.

[6] = 1 day, approximately 150 mg (1.0% w/v) in 15 mL model perfume (Examples 14, 20, 21)
[7] = 2 days, 1.0% w/v in 15 mL model perfume (Examples 14, 20, 21)
[8] = 4 days, 1.0% w/v in 15 mL model perfume (Examples 14, 20, 21)
[9] = 7 days, 1.0% w/v in 15 mL model perfume (Examples 14, 20, 21)
[10] = 3 min since addition, 250 μL in 20 mL autoxidized limonene
[11] = 20 min since addition, 250 μL in 20 mL autoxidized limonene
[12] = 35 min since addition, 250 μL in 20 mL autoxidized limonene
[13] = 44 min since addition, 250 μL in 20 mL autoxidized limonene
[14] = 66 min since addition, 250 μL in 20 mL autoxidized limonene
[15] = model citrus perfume, DMESi 0.3247 g, 0 d since addition
[16] = model citrus perfume, DMESi 0.3247 g, 0.08 d since addition
[17] = model citrus perfume, DMESi 0.3247 g, 1.29 d since addition
[18] = model citrus perfume, DMESi 0.3247 g, 5 d since addition
[19] = model citrus perfume, DMESi 0.3247 g, 14 d since addition
[20] = 40 min since addition, 200 mg in 20 mL autoxidized limonene
[21] = 150 min since addition, 200 mg in 20 mL autoxidized limonene
[22] = 190 min since addition, 200 mg in 20 mL autoxidized limonene
[23] = 2880 min (48 hrs) since addition, 200 mg in 20 mL autoxidized limonene

Compound: O=C(O)C(=O)c1ccccc1.O=C1NCCN1CCO [PhGA-HEI]
POV of Treated Perfume [1, 6]: 3.51 mmol/L
POV of Treated Perfume [1, 7]: 3.18 mmol/L
POV of Treated Perfume [1, 8]: 3.06 mmol/L
reduction in POV relative to untreated material [1]: 58.8%
POV of Treated Perfume [1, 9]: 2.94 mmol/L

Compound: CCOC(=O)[C@@H](N)CS.Cl [L-Cysteine ethyl ester hydrochloride]
% POV Reduction ([1]; approximately 0.15 g in 15 mL model perfume, 89 minutes after addition): 100%
POV after Treatment ([1]; approximately 0.15 g in 15 mL model perfume, 89 minutes after addition, untreated 5.55 mmol/L): 0.00 mmol/L

Compound: O=CC(=O)O [Glyoxylic Acid]
POV after Treatment ([1]; model citrus perfume, 3 days after addition of treating compound): 3.00 mmol/L
% POV Reduction ([1]; model citrus perfume, 3 days after addition of treating compound, vs untreated sample): 54.6%
POV after Treatment ([1]; model citrus perfume, 10 days after addition of treating compound): 1.61 mmol/L
% POV Reduction ([1]; model citrus perfume, 10 days after addition of treating compound, vs untreated sample): 80.8%

Compound: CCC(=O)C(=O)O [2-oxobutyric acid]
POV [2, 10]: 43.680 mEq/L
POV reduction [2, 10]: 34.1%
POV [2, 11]: 22.140 mEq/L
POV reduction [2, 11]: 66.6%
POV [2, 12]: 22.681 mEq/L
POV reduction [2, 12]: 65.8%
POV [2, 13]: 19.968 mEq/L
POV reduction [2, 13]: 69.9%
POV [2, 14]: 21.406 mEq/L
POV reduction [2, 14]: 67.7%
measured POV ([2]; additional 500 μL added (after 250 μL), additional 24 hours, 20 mL autoxidized limonene): 8.577 mEq./L
total reduction ([2]; additional 500 μL added, additional 24 hours): 87.1%

Compound: CCCCCCCCCCN(C)C.O=C(O)C(=O)c1ccco1 [FAA-DiMeC10A]
POV of Treated Perfume [1, 6]: 5.06 mmol/L
POV of Treated Perfume [1, 7]: 4.89 mmol/L
POV of Treated Perfume [1, 8]: 4.68 mmol/L
reduction in POV relative to untreated material [1]: 40.0%
POV of Treated Perfume [1, 9]: 4.28 mmol/L
POV of treated oil ([3]; 85 minutes since addition): 5.16 mmol/L
% Reduction in POV ([3]; 85 minutes): 68.8%
% Reduction in POV ([3]; 140 minutes): 82.1%
POV of treated oil ([3]; 140 minutes): 2.97 mmol/L
% Reduction in POV ([3]; 1320 mins (22 hrs)): 97.4%
POV of treated oil ([3]; 1320 mins (22 hrs)): 0.43 mmol/L
% Reduction in POV ([3]; 23 days): 100%
POV of treated oil ([3]; 23 days, indistinguishable from BLANK): 0.00 mmol/L

Compound: N[C@@H](CCC(=O)N[C@@H](CS)C(=O)NCC(=O)O)C(=O)O [glutathione]
% POV Reduction ([1]; approximately 0.15 g in 15 mL model perfume, 3 days after addition): 100%
POV after Treatment ([1]; approximately 0.15 g in 15 mL model perfume, 3 days after addition, untreated 5.55 mmol/L): 0.00 mmol/L

Compound: COC(=O)[C@H](CS)NC(C)=O [N-acetylcysteine methyl ester]
% POV Reduction [1]: 100%
POV after Treatment [1]: 0.00 mmol/L

Compound: CCCC(=O)C(=O)O [2-oxovaleric acid]
reduction in POV ([2]; 100 μL in 10 mL autoxidized limonene, 50 minutes, vs 65.97 mEq./L before): approximately 74%
POV after Treatment ([2]; 100 μL in 10 mL autoxidized limonene, stood 50 minutes): 17.21 mEq./L
POV ([3]; 30 minutes since addition, 250 μL in 25 mL sunflower oil): 7.38 mmol/L
POV reduction ([3]; 30 minutes, 250 μL in 25 mL sunflower oil, vs most recent untreated POV): 16.2%
POV ([3]; 50 minutes since addition, 250 μL in 25 mL sunflower oil): 7.84 mmol/L
POV reduction ([3]; 50 minutes, 250 μL in 25 mL sunflower oil, vs most recent untreated POV): 11.0%
POV, averaged value (in parentheses) ([3]; 23 hours since addition, 250 μL in 25 mL sunflower oil): 4.81 mmol/L
POV ([3]; 23 hours since addition, 250 μL in 25 mL sunflower oil, single measurements): 4.95 mmol/L and 4.67 mmol/L
POV reduction ([3]; 23 hours, 250 μL in 25 mL sunflower oil, vs most recent untreated POV): 45.4%
POV, averaged value (in parentheses) ([3]; 46 hours since addition, 250 μL in 25 mL sunflower oil): 5.22 mmol/L
POV ([3]; 46 hours since addition, 250 μL in 25 mL sunflower oil, single measurements): 5.34 mmol/L and 5.10 mmol/L
POV reduction ([3]; 46 hours, 250 μL in 25 mL sunflower oil, vs most recent untreated POV): 53.0%
POV, averaged value (in parentheses) ([3]; 15 days since addition, 250 μL in 25 mL sunflower oil): 2.10 mmol/L
POV ([3]; 15 days since addition, 250 μL in 25 mL sunflower oil, single measurements): 2.27 mmol/L and 2.05 mmol/L and 1.99 mmol/L
POV reduction ([3]; 15 days, 250 μL in 25 mL sunflower oil (0.83% v/v), vs untreated oil): 82.9%

Compound: CC[SiH](C)C [DMESi, Dimethylethylsilane]
POV (mmol/L) of treated [1, 15]: 13.2 mmol/L
Reduction in POV (%) [1, 15]: 0.00%
POV (mmol/L) of treated [1, 16]: 9.29 mmol/L
Reduction in POV (%) [1, 16]: 29.62%
POV (mmol/L) of treated [1, 17]: 9.32 mmol/L
Reduction in POV (%) [1, 17]: 33.43%
POV (mmol/L) of treated [1, 18]: 10.53 mmol/L
Reduction in POV (%) [1, 18]: 30.03%
POV (mmol/L) of treated [1, 19]: 13.65 mmol/L
Reduction in POV (%) [1, 19]: 24.38%

Compound: O=C(O)C(=O)c1ccccc1 [phenylglyoxylic acid]
POV [2, 20]: 37.035 mEq/L
POV reduction [2, 20]: 17.3%
POV [2, 21]: 34.086 mEq/L
POV reduction [2, 21]: 23.9%
POV [2, 22]: 29.963 mEq/L
POV reduction [2, 22]: 33.1%
POV [2, 23]: 17.265 mEq/L
POV reduction [2, 23]: 61.5%
solubility in autoxidized limonene (in words) ([4]; 200 mg in 20 mL): dissolved

Compound: L-Ascorbic acid 2-phosphate sesqui-magnesium salt hydrate [Vc-PSeMg]
POV (mmol/L) of treated ([1]; hydrate): 12.4 mmol/L and 12.32 mmol/L and 12.66 mmol/L and 12.28 mmol/L and 13.26 mmol/L and 15.25 mmol/L and 20.2 mmol/L

Compound: CC1=C(C(=O)N(C)C)CC(C(=O)N(C)C)=C(C)N1 [HDPA, N(3),N(3),N(5),N(5),2,6-Hexamethyl-1,4-Dihydro-3,5-Pyridinedicarboxamide]
Peak Area Treated ([5]; treatment time 1 day): 12723
Peak Area Treated ([5]; treatment time 6 days): 12128
Peak Area Treated ([5]; treatment time 13 days): 10978
Peak Area Treated ([5]; treatment time 20 days): 17089

Compound: O=C(O)C(=O)c1ccco1 [α-Oxo-2-furanacetic acid, α-oxo-2-furanacetic acid]
solubility in mixed citrus oil (in words) ([4]; on addition to mixed citrus oil): The majority of the added α-oxo-2-furanacetic acid did not dissolve

solubility / miscibility in model citrus perfume (in words) ([4]; on addition to hydroalcoholic model citrus perfume): miscible with the perfume
Compound: C[SiH](C)O[Si](C)(C)C [PMDSi, Pentamethyldisiloxane]

Compound: 2-Phospho-L-ascorbic acid trisodium salt [Vc-PTNa]
POV (mmol/L) of treated ([1]; trisodium salt): 12.4 mmol/L and 11.7 mmol/L and 11.57 mmol/L and 10.15 mmol/L and 8.7 mmol/L and 9.22 mmol/L and 9.49 mmol/L

Compound: CN(C)CCO.CN(C)CCO.O=C(O)CCC(=O)C(=O)O [AKG DiDeanol]
POV of Treated Perfume ([1]; 60 min, approximately 200 mg (1.0% w/v) in 20 mL model perfume (Example 9)): 5.95 mmol/L
POV of Treated Perfume ([1]; 75 min, 1.0% w/v in 20 mL model perfume (Example 9)): 5.66 mmol/L
POV of Treated Perfume ([1]; 115 min, 1.0% w/v in 20 mL model perfume (Example 9)): 4.96 mmol/L
POV of Treated Perfume ([1]; 195 min, 1.0% w/v in 20 mL model perfume (Example 9)): 3.20 mmol/L
POV of Treated Perfume ([1]; 210 min, 1.0% w/v in 20 mL model perfume (Example 9)): 3.08 mmol/L
POV of Treated Perfume ([1]; 300 min (5 hours), 1.0% w/v in 20 mL model perfume (Example 9)): 2.31 mmol/L
POV of Treated Perfume ([1]; 370 min, 1.0% w/v in 20 mL model perfume (Example 9)): 1.73 mmol/L
POV of Treated Perfume ([1]; 380 min, 1.0% w/v in 20 mL model perfume (Example 9)): 1.72 mmol/L
POV of Treated Perfume ([1]; […] (24 hours), 1.0% w/v in 20 mL model perfume (Example 9), indistinguishable from blank): 0.0 mmol/L
